According to paper PMC6109075, “Characterization of membrane penetration and cytotoxicity of C9orf72-encoding arginine-rich dipeptides” (Scientific Reports, 2018):
pKd: −log10 of the molar value. Entries after “also recorded” stand apart in the source; their conditions may differ. Values belong to the compound of their own block, whether it stands above or below them. Ends that are not written are not given here. Peptide text beside a SMILES is read from it.

Legend:
[1] = test system: Hela cells; assay: Peptide penetration assay, Hela cells at different pH (imaging); format: cell-based, human; settings: PBS pH6.0, pH7.4, pH8.0, 2 μM FITC-peptide, 1 hr
Experimental: For imaging, Hela cells were washed twice with phosphate buffered saline (PBS) (pH7.4) and then incubated with PBS of different pH (pH6.0, pH7.4 and pH8.0) containing 2 μM of FITC-(PR)20 or FITC-R12 for 1 hr, followed by washing with PBS twice. For quantification, HEK293 cells were incubated with 10 μM FITC-(PR)20 in 10% FBS-DMEM for 30 min at 4 °C or 37 °C. The cells were washed twice with PBS and then re-suspended in PBS. The fluorescent signal was measured by a plate reader TECAN infinite F200.

[2] = test system: NSC34 cells; assay: Penetration of FITC-conjugated DRPs into NSC34 cells; format: cell-based, mouse; settings: fluorescence intensity
[3] = test system: NSC34 cells; assay: Cytotox glo assay in NSC34 cells; format: cell-based, mouse; settings: 24 hr, N = 6
Excerpt: Anti-B23/nucleophosmin antibody was purchased from Cell signaling technology (Danvers, MA). RNAse A was obtained from Qiagen (Hilden, Germany). 1-Step Human Coupled IVT kit, oleic acid, poly-A RNA, Prolong Gold with DAPI and Nucblue live reagent were purchased from ThermoFisher Scientific (Waltham, MA). Cytotoxicity LDH Assay Kit-WST and octanol were obtained from Wako pure chemicals (Japan). Cell Titer-Glo and Cell-tox glo kits were purchased from Promega (Madison, WI). TAMRA-labeled random 15mer RNA was synthesized by Fasmac (Japan). Anti-puromycin antibody was purchased from Millipore.

[4] = test system: NSC34 cells; assay: LDH release assay in NSC34 cells; format: cell-based, mouse; settings: 24 hr, N = 6
Experimental: LDH assay was performed with Cytotoxicity LDH Assay Kit-WST from Wako (Japan) following the manufacture’s protocol. Briefly, mouse neuronal NSC34 cells or human fibroblasts were plated on a 96-well plate at 2 × 10^4 cells/well and then treated with the indicated concentration of peptide for 24 hr (NSC34 cells) or 48 hr (fibroblasts) before measurement of LDH release. The absorbance was measured by iMark microplate absorbance reader (Biorad).

[5] = test system: protein translation (Hela cell lysates); assay: In vitro translation (IVT) assay, turboGFP fluorescence; format: biochemical, human; settings: cell-free IVT, 100 μM peptide, turboGFP cDNA and Hela cell lysates, 37 °C, read every 1 min, N = 3
Experimental: IVT assay was performed with 1-step Human-Coupled IVT kit (ThermoFisher) following manufacturer’s protocol. Briefly, turboGFP cDNA and Hela cell lysates were mixed in a 96 white-well PCR plate in the presence or absence of 100 μM of each peptide and incubated at 37 °C. The fluorescence from translated turboGFP was measured by LightCycler (Roche lifescience) every 1 min.

[6] = test system: HEK293 cells; assay: Confocal imaging of live or fixed/permeabilized HEK293 cells treated with FITC-labeled CPPs; format: cell-based, human; settings: for entry into fixed/permeabilized cells: HEK293 cells after fixation/permeabilization, 10 μM FITC-peptide
Experimental: HEK293 cells were treated with 10 μM of FITC-labeled CPPs for 1 hr in combination with Nucblue live dye and then washed with PBS twice. The images were obtained by FV10 confocal microscopy (Olympus, Japan) or LSM710 confocal microscopy (Zeiss, Germany).
For RNAse A treatment, the HEK293 cells, fixed and permeabilized, were incubated with 10 μg/ml of recombinant RNAse A for 1 hr at 37 °C, followed by treatment with 10 μM of FITC-labeled peptides for 30 min. The cells were then washed with PBS twice and imaged with a confocal microscopy.

[7] = molecular target: EGFR (Homo sapiens) (UniProt P00533); settings: cited from earlier work
[8] = Functional assay of (PR)12 stability after incubation in culture medium; format: in vitro ADME; settings: 20 µM (PR)12-FITC, 2 hr with live HEK293 cells in DMEM-10%FBS, conditioned medium transferred to fixed/permeabilized HEK293 cells, read-out nucleolar accumulation
[9] = Peptides absorption assay (buffer / octanol containing oleic acid); format: physicochemical; settings: FITC-labeled peptide, buffers of different pH vs octanol containing 1% oleic acid (v/v), vortexed 5 min, fluorescence
Experimental: All buffers used for the peptide absorption assay were prepared with 140 mM NaCl, 2.5 mM KCl, 5 mM HEPES, 5 mM glycine, and the final pH was adjusted with NaOH or HCl.
The assay to show the effect of pH in peptides absorption into a hydrophobic phase was performed as previously reported. […] Fifty microliter of the buffer-peptide mix and 50 μl of octanol containing 1% of oleic acid (OA) (v/v) were placed into a microtubes and vortexed for 5 min, followed by centrifugation at 2200 g briefly to separate the octanol phase and buffer phase. After separation, octanol phase containing OA and absorbed peptides were collected and the fluorescence was measured by a plate reader TECAN infinite F200 (Mannedorf, Switzerland).

Compound: N=C(N)NCCC[C@H](NC(=O)[C@H](CCCNC(=N)N)NC(=O)[C@H](CCCNC(=N)N)NC(=O)[C@H](CCCNC(=N)N)NC(=O)[C@H](CCCNC(=N)N)NC(=O)[C@H](CCCNC(=N)N)NC(=O)[C@H](CCCNC(=N)N)NC(=O)[C@H](CCCNC(=N)N)NC(=O)[C@H](CCCNC(=N)N)NC(=O)[C@H](CCCNC(=N)N)NC(=O)[C@H](CCCNC(=N)N)NC(=O)[C@H](CCCNC(=N)N)NC(=S)Nc1ccc2c(c1)C(=O)OC21c2ccc(O)cc2Oc2cc(O)ccc21)C(=O)O [FITC-R12]
effect of extracellular pH on distribution of peptide into cells [1]: higher pH increased the distribution of FITC-labeled CPPs into the cells

penetration into NSC34 cells [2]: entered NSC34 cells more efficiently
Compound: PRPRPRPRPRPRPRPRPRPRPRPRPRPRPRPRPRPRPRPR [(PR)20]
cytotoxicity, Cytotox glo luminescence [3]: killed the cells
cytotoxicity, LDH release [4]: killed the cells; also recorded: exerted stronger cytotoxicity

Compound: amyloid β: amyloid β (40 a.a.), negative control peptide, from Peptide Institute
inhibition of protein translation in vitro (tGFP fluorescence) [5]: did not see inhibitory effect

Compound: N=C(N)NCCC[C@H](NC(=O)[C@@H]1CCCN1C(=O)[C@H](CCCNC(=N)N)NC(=O)[C@@H]1CCCN1C(=O)[C@H](CCCNC(=N)N)NC(=O)[C@@H]1CCCN1C(=O)[C@H](CCCNC(=N)N)NC(=O)[C@@H]1CCCN1C(=O)[C@H](CCCNC(=N)N)NC(=O)[C@@H]1CCCN1C(=O)[C@H](CCCNC(=N)N)NC(=O)[C@@H]1CCCN1C(=O)[C@H](CCCNC(=N)N)NC(=O)[C@@H]1CCCN1C(=O)[C@H](CCCNC(=N)N)NC(=O)[C@@H]1CCCN1C(=O)[C@H](CCCNC(=N)N)NC(=O)[C@@H]1CCCN1C(=O)[C@H](CCCNC(=N)N)NC(=O)[C@@H]1CCCN1C(=O)[C@H](CCCNC(=N)N)NC(=O)[C@@H]1CCCN1C(=O)[C@H](CCCNC(=N)N)NC(=O)[C@@H]1CCCN1C(=S)Nc1ccc2c(c1)C(=O)OC21c2ccc(O)cc2Oc2cc(O)ccc21)C(=O)O [FITC-(PR)12] (HELM PEPTIDE1{[O=C1OC2(c3ccc(O)cc3Oc3cc(O)ccc32)c2ccc(NC(=S)[*:2])cc21].P.R.P.R.P.R.P.R.P.R.P.R.P.R.P.R.P.R.P.R.P.R.P.R}$$$$V2.0)
entry into fixed/permeabilized cells [6]: entered the cells and accumulated to nucleoli

Compound: GE11
pKd [7]: 7.66

Compound: PRPRPRPRPRPRPRPRPRPRPRPR [(PR)12]
cytotoxicity, LDH release [4]: did not show cytotoxicity
stability in the culture medium [8]: stable in the culture medium

Compound: human insulin: FITC-labeled recombinant human insulin (51 a.a.), non-permeable, from Sigma
effect of pH on absorption of peptide into the octanol phase [9]: did not enhance the absorption

penetration into NSC34 cells [2]: also entered the cells as well
Compound: N=C(N)NCCC[C@H](NC(=O)CNC(=O)[C@H](CCCNC(=N)N)NC(=O)CNC(=O)[C@H](CCCNC(=N)N)NC(=O)CNC(=O)[C@H](CCCNC(=N)N)NC(=O)CNC(=O)[C@H](CCCNC(=N)N)NC(=O)CNC(=O)[C@H](CCCNC(=N)N)NC(=O)CNC(=O)[C@H](CCCNC(=N)N)NC(=O)CNC(=O)[C@H](CCCNC(=N)N)NC(=O)CNC(=O)[C@H](CCCNC(=N)N)NC(=O)CNC(=O)[C@H](CCCNC(=N)N)NC(=O)CNC(=O)[C@H](CCCNC(=N)N)NC(=O)CNC(=O)[C@H](CCCNC(=N)N)NC(=O)CNC(=O)[C@H](CCCNC(=N)N)NC(=O)CNC(=O)[C@H](CCCNC(=N)N)NC(=O)CNC(=O)[C@H](CCCNC(=N)N)NC(=O)CNC(=O)[C@H](CCCNC(=N)N)NC(=O)CNC(=O)[C@H](CCCNC(=N)N)NC(=O)CNC(=O)[C@H](CCCNC(=N)N)NC(=O)CNC(=O)[C@H](CCCNC(=N)N)NC(=O)CNC(=O)[C@H](CCCNC(=N)N)NC(=O)CN)C(=O)O [(GR)20]

Compound: N=C(N)NCCC[C@H](NC(=O)[C@@H]1CCCN1C(=O)[C@H](CCCNC(=N)N)NC(=O)[C@@H]1CCCN1C(=O)[C@H](CCCNC(=N)N)NC(=O)[C@@H]1CCCN1C(=O)[C@H](CCCNC(=N)N)NC(=O)[C@@H]1CCCN1C(=O)[C@H](CCCNC(=N)N)NC(=O)[C@@H]1CCCN1C(=O)[C@H](CCCNC(=N)N)NC(=O)[C@@H]1CCCN1C(=O)[C@H](CCCNC(=N)N)NC(=O)[C@@H]1CCCN1C(=O)[C@H](CCCNC(=N)N)NC(=O)[C@@H]1CCCN1C(=O)[C@H](CCCNC(=N)N)NC(=O)[C@@H]1CCCN1C(=O)[C@H](CCCNC(=N)N)NC(=O)[C@@H]1CCCN1C(=O)[C@H](CCCNC(=N)N)NC(=O)[C@@H]1CCCN1C(=O)[C@H](CCCNC(=N)N)NC(=O)[C@@H]1CCCN1C(=O)[C@H](CCCNC(=N)N)NC(=O)[C@@H]1CCCN1C(=O)[C@H](CCCNC(=N)N)NC(=O)[C@@H]1CCCN1C(=O)[C@H](CCCNC(=N)N)NC(=O)[C@@H]1CCCN1C(=O)[C@H](CCCNC(=N)N)NC(=O)[C@@H]1CCCN1C(=O)[C@H](CCCNC(=N)N)NC(=O)[C@@H]1CCCN1C(=O)[C@H](CCCNC(=N)N)NC(=O)[C@@H]1CCCN1C(=O)[C@H](CCCNC(=N)N)NC(=O)[C@@H]1CCCN1C(=O)[C@H](CCCNC(=N)N)NC(=O)[C@@H]1CCCN1C(=S)Nc1ccc2c(c1)C(=O)OC21c2ccc(O)cc2Oc2cc(O)ccc21)C(=O)O [FITC-(PR)20] (HELM PEPTIDE1{[O=C1OC2(c3ccc(O)cc3Oc3cc(O)ccc32)c2ccc(NC(=S)[*:2])cc21].P.R.P.R.P.R.P.R.P.R.P.R.P.R.P.R.P.R.P.R.P.R.P.R.P.R.P.R.P.R.P.R.P.R.P.R.P.R.P.R}$$$$V2.0)
entry into fixed/permeabilized cells [6]: entered the cells and accumulated to nucleoli
penetration of the plasma membrane of live cells ([6]; live HEK293 cells, 10 μM FITC-peptide added to culture medium): penetrated the plasma membrane and accumulated to nucleoli
